pIC50: −log10 of the molar value.
Test system: CCRF S-180
Experiment: In vitro inhibitory concentration against growth of mouse sarcoma 180 (S-180) cells
Format: functional, cell-based

pIC50: 5.97
Sequence: CISPLATIN

Source: ChEMBL document CHEMBL1129940, “Cytotoxicity of platinum (II) dinuclear complexes with 1-alkylthymine ligands against mouse sarcoma 180 cells” (J Med Chem, 1997)
